According to US20110092423A1, “INHIBITORS OF Akt ACTIVITY” (GlaxoSmithKline, LLC, priority 2008, published 2011):

Molecular target: T1, full length AKT1 (Homo sapiens, UniProt P31749)
T1 construct: Full-length human AKT1 gene was amplified by PCR; His tag (from vector pFastbacHTb; purified on Nickel Sepharose) (N); made in house; host or cells: baculovirus; Sf9 / T. ni insect cells
Test: Full-length AKT enzyme assay (substrate phosphorylation, SPA)
Format: biochemical
Details: in at least one experimental run; pIC50 = -log(IC50), IC50 in molar units; 4 uM ATP, 10 nM enzyme; read-out: pIC50 value against full length AKT1 (converted)
Text: Cloning of Full-Length Human (FL) AKT1:
Full-length human AKT1 gene was amplified by PCR from a plasmid containing myristylated-AKT1-ER (gift from Robert T. Abraham, Duke University under MTA, described in Klippel et al. in Molecular and Cellular Biology 1998 Volume 18 p. 5699) using the 5′ primer: SEQ. ID NO: 2 5′ […] 3′ and the 3′ primer: SEQ. ID NO: 3 […] 3′. The 5′ primer included a BamHI site and the 3′ primer included an XhoI site for cloning purposes. The resultant PCR product was subcloned in pcDNA3 as a BamHI/XhoI fragment. […]
Compounds of the present invention were tested for AKT 1, 2, and 3 protein serine kinase inhibitory activity in substrate phosphorylation assays. […] Substrate phosphorylation was detected by the following procedure.
Assays were performed in 384 well U-bottom white plates. […] The reaction was stopped by the addition of 50 ul SPA bead mix (Dulbecco's PBS without Mg^2+ and Ca^2+, 0.1% Triton X-100, 5 mM EDTA, 50 uM ATP, 2.5 mg/ml Streptavidin-coated SPA beads.) The plate was sealed, the beads were allowed to settle overnight, and then the plate was counted in a Packard Topcount Microplate Scintillation Counter (Packard Instrument Co., Meriden, Conn.). […]

T1 sequence (P31749 whole entry): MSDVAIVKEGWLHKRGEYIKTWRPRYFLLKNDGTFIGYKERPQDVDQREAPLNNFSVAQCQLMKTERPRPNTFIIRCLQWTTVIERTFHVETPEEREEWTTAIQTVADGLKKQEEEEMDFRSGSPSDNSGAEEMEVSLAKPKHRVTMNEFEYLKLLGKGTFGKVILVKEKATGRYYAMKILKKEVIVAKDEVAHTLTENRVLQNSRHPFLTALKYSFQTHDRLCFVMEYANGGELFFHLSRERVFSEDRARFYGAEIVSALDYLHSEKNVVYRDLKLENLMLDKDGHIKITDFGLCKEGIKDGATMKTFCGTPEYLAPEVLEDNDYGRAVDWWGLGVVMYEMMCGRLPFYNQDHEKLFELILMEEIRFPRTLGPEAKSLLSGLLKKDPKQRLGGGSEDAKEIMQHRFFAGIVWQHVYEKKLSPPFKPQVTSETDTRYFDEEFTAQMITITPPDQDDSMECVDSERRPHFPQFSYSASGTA

- IC50: 10 nM
Structure (SMILES): Cn1ncc(Cl)c1-c1ncc(C(=O)N[C@H](CN)Cc2cccc(F)c2)s1 [Example 2, N-{(1S)-2-amino-1-[(3-fluorophenyl)methyl]ethyl}-2-(4-chloro-1-methyl-1H-pyrazol-5-yl)-1,3-thiazole-5-carboxamide]
